Data on 1 compound can be found in paper PMC5218480 (PLoS ONE, 2017).

For this assay, the system named is MV-4-11 cells. The experiment in a line: Gene expression microarray analysis (Affymetrix PrimeView) and GSEA. In kind it is cell-based, human. Set-up: RFU PODN (11730768_x_at) / Fold change /veh PODN (11730768_x_at) / RFU LINC00158 (11744669_a_at) / Fold change /veh LINC00158 (11744669_a_at) / RFU DUSP10 (11751237_a_at) / Fold change /veh DUSP10 (11751237_a_at) / RFU ID3 (11757404_x_at) / Fold change /veh ID3 (11757404_x_at) / RFU PLEKHG5 (11737974_s_at) / Fold change /veh PLEKHG5 (11737974_s_at) / RFU LRRC4B (11730491_at) / Fold change /veh LRRC4B (11730491_at) / RFU GIMAP4 (11747438_a_at) / Fold change /veh GIMAP4 (11747438_a_at) / RFU KRT8 (11758183_x_at) / Fold change /veh KRT8 (11758183_x_at) / RFU CNN1 (11734310_a_at) / Fold change /veh CNN1 (11734310_a_at) / RFU VPS37D (11726825_at) / Fold change /veh VPS37D (11726825_at) / RFU C10orf10 (11716522_x_at) / Fold change /veh C10orf10 (11716522_x_at) / RFU KIR2DL2 /// KIR2DL4 /// KIR2DL5A /// KIR2DL5B /// KIR2DS1 /// KIR2DS2 /// KIR2DS3 /// KIR2DS4 /// KIR3DL3 /// KIR3DL3 /// KIR3DS1 (11738374_at) / Fold change /veh KIR2DL2 /// KIR2DL4 /// KIR2DL5A /// KIR2DL5B /// KIR2DS1 /// KIR2DS2 /// KIR2DS3 /// KIR2DS4 /// KIR3DL3 /// KIR3DL3 /// KIR3DS1 (11738374_at) / RFU C1QL1 (11718748_at) / Fold change /veh C1QL1 (11718748_at) / RFU TMPRSS4 (11747572_a_at) / Fold change /veh TMPRSS4 (11747572_a_at) / RFU HAMP (11756126_x_at) / Fold change /veh HAMP (11756126_x_at) / RFU RNFT2 (11725882_a_at) / Fold change /veh RNFT2 (11725882_a_at) / RFU NR4A2 (11747474_a_at) / Fold change /veh NR4A2 (11747474_a_at) / RFU ABCC12 (11746883_a_at) / Fold change /veh ABCC12 (11746883_a_at) / RFU TMEM136 (11760407_x_at) / Fold change /veh TMEM136 (11760407_x_at) / RFU CLDN22 /// WWC2 (11732394_at) / Fold change /veh CLDN22 /// WWC2 (11732394_at) / RFU HLA-DPB1 (11760878_x_at) / Fold change /veh HLA-DPB1 (11760878_x_at) / RFU SPINT1 (11716480_a_at) / Fold change /veh SPINT1 (11716480_a_at) / RFU GAP43 (11754022_s_at) / Fold change /veh GAP43 (11754022_s_at) / RFU A4GNT (11735810_at) / Fold change /veh A4GNT (11735810_at) / RFU PRB3 (11715151_x_at) / Fold change /veh PRB3 (11715151_x_at) / RFU TUBB4B (11761932_at) / Fold change /veh TUBB4B (11761932_at) / RFU CAPN14 (11732068_a_at) / Fold change /veh CAPN14 (11732068_a_at) / RFU TMCC2 (11721928_a_at) / Fold change /veh TMCC2 (11721928_a_at) / RFU IRGQ (11745062_a_at) / Fold change /veh IRGQ (11745062_a_at) / RFU FAM174B (11720279_a_at) / Fold change /veh FAM174B (11720279_a_at) / RFU TMPRSS4 (11748680_a_at) / Fold change /veh TMPRSS4 (11748680_a_at) / RFU FAM212B (11763350_a_at) / Fold change /veh FAM212B (11763350_a_at) / RFU PLEKHG5 (11743358_a_at) / Fold change /veh PLEKHG5 (11743358_a_at) / RFU ZSCAN30 (11745921_a_at) / Fold change /veh ZSCAN30 (11745921_a_at) / RFU CMKLR1 (11741424_a_at) / Fold change /veh CMKLR1 (11741424_a_at) / RFU LOC101060620 /// MAPK8IP1 (11723275_at) / Fold change /veh LOC101060620 /// MAPK8IP1 (11723275_at) / RFU SPTSSB (11747773_x_at) / Fold change /veh SPTSSB (11747773_x_at) / RFU PRSS12 (11739890_at) / Fold change /veh PRSS12 (11739890_at) / RFU BIN1 (11741810_x_at) / Fold change /veh BIN1 (11741810_x_at) / RFU WNT11 (11732464_a_at) / Fold change /veh WNT11 (11732464_a_at) / RFU C10orf10 (11716521_a_at) / Fold change /veh C10orf10 (11716521_a_at) / RFU C5orf56 (11738089_at) / Fold change /veh C5orf56 (11738089_at) / RFU CYB561 (11721691_x_at) / Fold change /veh CYB561 (11721691_x_at) / RFU ANKRD19P (11752326_a_at) / Fold change /veh ANKRD19P (11752326_a_at) / RFU OR2T12 /// OR2T33 /// OR2T8 (11738714_s_at) / Fold change /veh OR2T12 /// OR2T33 /// OR2T8 (11738714_s_at) / RFU VCAN (11748164_a_at) / Fold change /veh VCAN (11748164_a_at) / RFU JSRP1 (11732532_at) / Fold change /veh JSRP1 (11732532_at) / RFU KRTAP10-11 (11738290_x_at) / Fold change /veh KRTAP10-11 (11738290_x_at) / RFU MYO3A (11730013_a_at) / Fold change /veh MYO3A (11730013_a_at) / RFU EBF3 (11725865_a_at) / Fold change /veh EBF3 (11725865_a_at) / RFU CAMK2N1 (11719241_x_at) / Fold change /veh CAMK2N1 (11719241_x_at) / RFU C5orf56 (11738088_a_at) / Fold change /veh C5orf56 (11738088_a_at) / RFU OLFML3 (11715873_a_at) / Fold change /veh OLFML3 (11715873_a_at) / RFU LOC100653217 /// NTM (11731650_a_at) / Fold change /veh LOC100653217 /// NTM (11731650_a_at) / RFU MAPK11 (11762145_a_at) / Fold change /veh MAPK11 (11762145_a_at) / RFU FIZ1 (11724087_x_at) / Fold change /veh FIZ1 (11724087_x_at) / RFU OASL (11726364_x_at) / Fold change /veh OASL (11726364_x_at) / RFU SOX15 (11748057_x_at) / Fold change /veh SOX15 (11748057_x_at) / RFU CD79A (11719716_a_at) / Fold change /veh CD79A (11719716_a_at) / RFU HIST1H1D (11736915_at) / Fold change /veh HIST1H1D (11736915_at) / RFU CASKIN2 (11723855_a_at) / Fold change /veh CASKIN2 (11723855_a_at) / RFU LOC730098 (11760151_x_at) / Fold change /veh LOC730098 (11760151_x_at) / RFU OR4N2 (11742367_at) / Fold change /veh OR4N2 (11742367_at) / RFU PRRT2 (11749266_a_at) / Fold change /veh PRRT2 (11749266_a_at) / RFU SNX32 (11753110_a_at) / Fold change /veh SNX32 (11753110_a_at) / RFU CDHR5 (11726645_a_at) / Fold change /veh CDHR5 (11726645_a_at) / RFU RCAN1 (11760418_a_at) / Fold change /veh RCAN1 (11760418_a_at) / RFU FAM167A (11723789_a_at) / Fold change /veh FAM167A (11723789_a_at) / RFU FAM26E (11764081_at) / Fold change /veh FAM26E (11764081_at) / RFU ISYNA1 (11749810_s_at) / Fold change /veh ISYNA1 (11749810_s_at) / RFU ACY1 (11761880_at) / Fold change /veh ACY1 (11761880_at) / RFU 11764098_at / Fold change /veh 11764098_at / RFU SAMD14 (11745864_x_at) / Fold change /veh SAMD14 (11745864_x_at) / RFU NPB (11741838_a_at) / Fold change /veh NPB (11741838_a_at) / RFU TMPRSS6 (11731388_a_at) / Fold change /veh TMPRSS6 (11731388_a_at) / RFU KRTAP10-2 (11738614_at) / Fold change /veh KRTAP10-2 (11738614_at) / RFU ARHGAP8 /// PRR5-ARHGAP8 (11727945_x_at) / Fold change /veh ARHGAP8 /// PRR5-ARHGAP8 (11727945_x_at) / RFU KRTAP5-7 /// NADSYN1 (11734609_at) / Fold change /veh KRTAP5-7 /// NADSYN1 (11734609_at) / RFU RASL12 (11751679_a_at) / Fold change /veh RASL12 (11751679_a_at) / RFU CDKN2B (11736163_a_at) / Fold change /veh CDKN2B (11736163_a_at) / RFU PRF1 (11729649_at) / Fold change /veh PRF1 (11729649_at) / RFU, ZNF638 /// ZNF638-IT1 / Fold change vs veh, ZNF638 /// ZNF638-IT1 / RFU, PANK3 / Fold change vs veh, PANK3 / RFU, SH3YL1 / Fold change vs veh, SH3YL1 / RFU, ZEB2 / Fold change vs veh, ZEB2 / RFU, NRIP1 / Fold change vs veh, NRIP1 / RFU, PTTG1IP / Fold change vs veh, PTTG1IP / RFU, CAPN2 / Fold change vs veh, CAPN2 / RFU, MED14 / Fold change vs veh, MED14 / RFU, SNORA58 / Fold change vs veh, SNORA58 / RFU, C1orf63 / Fold change vs veh, C1orf63 / RFU, LRRFIP1 / Fold change vs veh, LRRFIP1 / RFU, NDUFAF7 / Fold change vs veh, NDUFAF7 / RFU, SLC12A2 / Fold change vs veh, SLC12A2 / RFU, IBTK / Fold change vs veh, IBTK / RFU, ESF1 / Fold change vs veh, ESF1 / Fold change vs veh, TMEM50B / RFU, TAOK1 / Fold change vs veh, TAOK1 / RFU, ACBD3 / Fold change vs veh, ACBD3 / RFU, TMA16 / Fold change vs veh, TMA16 / RFU, RWDD3 / Fold change vs veh, RWDD3 / RFU, BCAT1 / Fold change vs veh, BCAT1 / RFU, EDEM3 / Fold change vs veh, EDEM3 / RFU, TMEM33 / Fold change vs veh, TMEM33 / RFU, WDR75 / Fold change vs veh, WDR75 / RFU, AHCTF1 / Fold change vs veh, AHCTF1 / RFU, TFRC / Fold change vs veh, TFRC / RFU, ZDHHC17 / Fold change vs veh, ZDHHC17 / RFU, NOM1 / Fold change vs veh, NOM1 / RFU, ARL8B / Fold change vs veh, ARL8B / RFU, ZBTB11 / Fold change vs veh, ZBTB11 / RFU, TAMM41 / Fold change vs veh, TAMM41 / RFU, KIAA1704 /// LOC100996395 / Fold change vs veh, KIAA1704 /// LOC100996395 / RFU, ING1 / Fold change vs veh, ING1 / RFU, TRMT61B / Fold change vs veh, TRMT61B / RFU, FUBP3 / Fold change vs veh, FUBP3 / RFU, TP53 / Fold change vs veh, TP53 / RFU, TNKS2 / Fold change vs veh, TNKS2 / RFU, ZFP14 / Fold change vs veh, ZFP14 / RFU, ACTR2 / Fold change vs veh, ACTR2 / RFU, PPP3R1 / Fold change vs veh, PPP3R1 / RFU, PIK3R1 / Fold change vs veh, PIK3R1 / RFU, HNRNPA1 / Fold change vs veh, HNRNPA1 / RFU, RNF170 / Fold change vs veh, RNF170 / RFU, ZNF28 / Fold change vs veh, ZNF28 / RFU, RNGTT / Fold change vs veh, RNGTT / RFU, OGT / Fold change vs veh, OGT / RFU, BRD1 / Fold change vs veh, BRD1 / RFU, MARS / Fold change vs veh, MARS / RFU, ZNF655 / Fold change vs veh, ZNF655 / RFU, FAHD1 / Fold change vs veh, FAHD1 / RFU, BDP1 / Fold change vs veh, BDP1 / RFU, LRRCC1 / Fold change vs veh, LRRCC1 / RFU, ARID1A / Fold change vs veh, ARID1A / RFU, ZNF146 / Fold change vs veh, ZNF146 / RFU, ZNF330 / Fold change vs veh, ZNF330 / RFU, GPN3 / Fold change vs veh, GPN3 / RFU, C9orf123 / Fold change vs veh, C9orf123 / RFU, N4BP2L2 / Fold change vs veh, N4BP2L2 / RFU, ARFIP1 / Fold change vs veh, ARFIP1 / RFU, FAM179B / Fold change vs veh, FAM179B / RFU, BCL10 / Fold change vs veh, BCL10 / RFU, UHRF1BP1L / Fold change vs veh, UHRF1BP1L / RFU, BET1 / Fold change vs veh, BET1 / RFU, CNOT2 / Fold change vs veh, CNOT2 / RFU, ZNF268 / Fold change vs veh, ZNF268 / Fold change vs veh, ZNF507 / RFU, DGCR2 / Fold change vs veh, DGCR2 / RFU, WDSUB1 / Fold change vs veh, WDSUB1 / Fold change vs veh, HSP90B1 /// MIR3652 / RFU, ADSS / Fold change vs veh, ADSS / RFU, GK / Fold change vs veh, GK / RFU, ZNF148 / Fold change vs veh, ZNF148 / RFU, TAF9 / Fold change vs veh, TAF9 / RFU, SLC1A5 / Fold change vs veh, SLC1A5 / RFU, SLMO2 / Fold change vs veh, SLMO2 / RFU, ABCC4 / Fold change vs veh, ABCC4 / RFU, LOC101060439 /// RAP1B / Fold change vs veh, LOC101060439 /// RAP1B / RFU, RFX7 / Fold change vs veh, RFX7 / RFU, GTPBP10 / Fold change vs veh, GTPBP10 / RFU, CNEP1R1 / Fold change vs veh, CNEP1R1 / RFU, BIVM-ERCC5 /// ERCC5 / Fold change vs veh, BIVM-ERCC5 /// ERCC5 / RFU, ILF3 / Fold change vs veh, ILF3 / RFU 11762660_at / Fold change /veh 11762660_at / RFU VCAN (11757783_s_at) / Fold change /veh VCAN (11757783_s_at) / RFU DDX43 (11728927_at) / Fold change /veh DDX43 (11728927_at) / RFU KRT8 (11758188_x_at) / Fold change /veh KRT8 (11758188_x_at) / RFU NKD1 (11759106_at) / Fold change /veh NKD1 (11759106_at) / RFU SRD5A1 (11742802_a_at) / Fold change /veh SRD5A1 (11742802_a_at) / RFU TPSAB1 /// TPSB2 (11721975_s_at) / Fold change /veh TPSAB1 /// TPSB2 (11721975_s_at) / RFU GSTM3 (11746129_a_at) / Fold change /veh GSTM3 (11746129_a_at) / RFU IL23R (11737362_x_at) / Fold change /veh IL23R (11737362_x_at) / RFU TMEM51 (11727254_a_at) / Fold change /veh TMEM51 (11727254_a_at) / RFU PIWIL2 (11732686_x_at) / Fold change /veh PIWIL2 (11732686_x_at) / RFU ORM1 (11744905_x_at) / Fold change /veh ORM1 (11744905_x_at) / RFU CCDC152 (11743942_at) / Fold change /veh CCDC152 (11743942_at) / RFU ECM1 (11717891_a_at) / Fold change /veh ECM1 (11717891_a_at) / RFU IL23R (11748794_a_at) / Fold change /veh IL23R (11748794_a_at) / RFU TNFAIP8L3 (11732012_x_at) / Fold change /veh TNFAIP8L3 (11732012_x_at) / RFU MBOAT4 (11741988_at) / Fold change /veh MBOAT4 (11741988_at) / RFU 11764193_at / Fold change /veh 11764193_at / RFU TMEM53 (11763286_at) / Fold change /veh TMEM53 (11763286_at) / RFU MAGEB2 (11727129_at) / Fold change /veh MAGEB2 (11727129_at) / RFU TMEM200A (11744735_a_at) / Fold change /veh TMEM200A (11744735_a_at) / RFU CCDC152 (11751479_a_at) / Fold change /veh CCDC152 (11751479_a_at) / RFU FAM211A (11726209_a_at) / Fold change /veh FAM211A (11726209_a_at) / RFU RGS16 (11746705_a_at) / Fold change /veh RGS16 (11746705_a_at) / RFU VCAN (11755009_s_at) / Fold change /veh VCAN (11755009_s_at) / RFU RHOB (11743442_s_at) / Fold change /veh RHOB (11743442_s_at) / RFU RGS16 (11720943_a_at) / Fold change /veh RGS16 (11720943_a_at) / RFU RGS16 (11720944_at) / Fold change /veh RGS16 (11720944_at) / RFU, VPS4B / Fold change vs veh, VPS4B / RFU, CREB1 / Fold change vs veh, CREB1 / RFU, DNAJC13 / Fold change vs veh, DNAJC13 / RFU, GNAQ / Fold change vs veh, GNAQ / RFU, CDK5R1 / Fold change vs veh, CDK5R1 / RFU, ZRANB3 / Fold change vs veh, ZRANB3 / RFU, CUL4A / Fold change vs veh, CUL4A / RFU, CCNY / Fold change vs veh, CCNY / RFU, UFL1 / Fold change vs veh, UFL1 / RFU, COG3 / Fold change vs veh, COG3 / RFU, DIAPH2 / Fold change vs veh, DIAPH2 / RFU, SKA2 / Fold change vs veh, SKA2 / RFU, AFF3 / Fold change vs veh, AFF3 / RFU, LMF1 / Fold change vs veh, LMF1 / RFU, IPO11 / Fold change vs veh, IPO11 / RFU, DFFB / Fold change vs veh, DFFB / RFU, FOXP1 / Fold change vs veh, FOXP1 / RFU, CARD8 / Fold change vs veh, CARD8 / RFU, STRN3 / Fold change vs veh, STRN3 / RFU, ADK / Fold change vs veh, ADK / RFU, RASSF2 / Fold change vs veh, RASSF2 / RFU, WIPF1 / Fold change vs veh, WIPF1 / RFU, LARP1B / Fold change vs veh, LARP1B / RFU, RASA1 / Fold change vs veh, RASA1 / RFU, RB1 / Fold change vs veh, RB1 / RFU, PPFIA1 / Fold change vs veh, PPFIA1 / RFU, MAT2A / Fold change vs veh, MAT2A / RFU, CCT5 / Fold change vs veh, CCT5 / RFU, WDR92 / Fold change vs veh, WDR92 / RFU, CUX1 / Fold change vs veh, CUX1 / RFU, TTC7A / Fold change vs veh, TTC7A / RFU, TMEM135 / Fold change vs veh, TMEM135 / RFU, DEPTOR / Fold change vs veh, DEPTOR / RFU, CPM / Fold change vs veh, CPM / RFU, DNAJB6 / Fold change vs veh, DNAJB6 / RFU, CACNA2D3 / Fold change vs veh, CACNA2D3 / RFU, DTX4 / Fold change vs veh, DTX4 / RFU, TFCP2 / Fold change vs veh, TFCP2 / RFU, GMCL1 /// GMCL1P1 / Fold change vs veh, GMCL1 /// GMCL1P1 / RFU, AEBP2 / Fold change vs veh, AEBP2 / RFU, SNHG1 /// SNORD22 /// SNORD25 /// SNORD26 /// SNORD27 /// SNORD28 /// SNORD29 /// SNORD31 / Fold change vs veh, SNHG1 /// SNORD22 /// SNORD25 /// SNORD26 /// SNORD27 /// SNORD28 /// SNORD29 /// SNORD31 / Fold change (Aza/veh), C12orf56 (ProbeSet 11735607_a_at) / Fold change (ACY-1035/veh), C12orf56 (ProbeSet 11735607_a_at) / Fold change (Aza/veh), FGFR1OP (ProbeSet 11751329_s_at) / Fold change (ACY-1035/veh), FGFR1OP (ProbeSet 11751329_s_at) / Fold change (Aza/veh), VPS36 (ProbeSet 11739960_a_at) / Fold change (ACY-1035/veh), VPS36 (ProbeSet 11739960_a_at) / RFU SYPL1 (11715823_x_at) / Fold change /veh SYPL1 (11715823_x_at) / RFU IGFBP7 (11715501_s_at) / Fold change /veh IGFBP7 (11715501_s_at) / RFU REEP3 (11722064_at) / Fold change /veh REEP3 (11722064_at) / RFU IGLL1 (11728026_x_at) / Fold change /veh IGLL1 (11728026_x_at): dose or concentration left out as unconfirmed. The note with it: ProbeSet 11739696_s_at; LIST D.

On to `Nc1ccc(-c2cccs2)cc1NC(=O)c1ccc2c(c1)cc(C1CC1)n2CCN1CCOCC1` [ACY-1035], for which the “RFU, AFF3” value came to 669.34 RFU.
